Measurements taken from publication PMC11992225, “Antibacterial compounds against non-growing and intracellular bacteria” (npj Antimicrobials and Resistance, 2025).
Values joined by “and” are separate entries in the source; they are usually repeats but may differ in a detail not shown here. Equal values may be shown once.

Key:
[1] = tested on: non-growing S. aureus DSM2569; experiment: Dilution-regrowth assay (OD600, start-growth-time) on stationary-phase S. aureus; format: cell-based, Staphylococcus aureus; conditions: S. aureus; for EC50: Staphylococcus aureus, DSM2569, regrowth delay of non-growing bacteria, 1:4 CA-MHB pH 7.4, 24 h treatment, OD600 8 h after dilution, read-out: EC50
Procedure: (§1) The cultures were grown and treated for 24 h in 1:4 CA-MHB (pH 7.4).
This approach allowed us to capture the time when cultures reached a threshold optical density (start-growth-time, SGT[15]).
The cultures were incubated for 24 h in non-baffled Erlenmeyer flasks at 37 °C with shaking at 200 rpm.
For P. aeruginosa and S. aureus, dose–response analysis was conducted in 96-well plates with a 200 μl assay volume, following the procedure used for screening assay validation experiments. […] Stock solutions were prepared and stored according to the manufacturers’ instructions, then diluted in 10% DMSO before use. Cultures were incubated for 24 h in 1:4 diluted CA-MHB medium under the same conditions used for UPEC cultivation. In preliminary experiments, each compound was tested at a concentration of 20 μM in the dilution-regrowth assay with 4 technical replicates. Regrowth was monitored using a microplate reader at 37 °C with continuous shaking, and OD600 was recorded every 20 min. The time at which OD600 exceeded the threshold of 0.12 was recorded as the Start_Growth-Time.
Statistical significance of the drug effects was assessed using a one-way ANOVA followed by Dunnett’s test, comparing each treatment to the drug-free control. Statistical significance of the differences in chemical characteristics between the hit compounds and the Prestwick library was assessed using a Mann–Whitney test. Statistical significance was set at P ≤ 0.05. A five-parameter logistic equation was used for asymmetric sigmoidal curve fitting and for EC50 and IC50 determination. The Venn diagram in Fig. 1F was prepared using BioVenn web application. Characteristics of the chemical and physical properties of Prestwick library compounds were obtained from Supplementary Table S1 from reference. Characteristics of the hit compounds not included in the Prestwick library were retrieved from the PubChem database.

[2] = tested on: non-growing S. aureus DSM2569; experiment: Dose-dependent killing analysis (CFU spot-plating) of stationary-phase S. aureus; format: cell-based, Staphylococcus aureus; conditions: for average Δlog10(CFU/ml) (killing): S. aureus, vs 9,097 before treatment
Procedure: To determine the spectrum of activity of the compounds that were effective against non-growing UPEC, we further assessed their efficacy against the well-characterized Gram-negative and Gram-positive reference strains P. aeruginosa DSM1117 and S. aureus DSM2569, respectively. The cultures were grown and treated for 24 h in 1:4 CA-MHB (pH 7.4). […].
(§2) For survival analysis, bacteria were cultivated as described for the dose–response dilution-regrowth assay. Assays with UPEC were conducted at the CBCS screening facility using 96-well plates with a 200 μl sample volume, and compounds were dispensed using the Echo® (Labcyte) system. P. aeruginosa and S. aureus samples were treated according to the protocol used for the dilution-regrowth experiments. Treated samples were serially diluted 10-fold in PBS, and 10 μl drops were spot-plated onto rectangular LB agar plates using either a Beckman NXP robot (for UPEC) or an Integra VIAFLO96 electronic pipette (for P. aeruginosa and S. aureus). The LB agar plates were incubated overnight at 37 °C and scanned. Colonies were counted at the spots of the lowest dilution where individual colonies could be accurately distinguished. Each colony was manually marked on a separate image layer using the GNU Image Manipulation Program, and counted using NIST’s Integrated Colony Enumerator (NICE 1.4) software. The experiments were performed in three biological replicates.

[3] = tested on: non-growing P. aeruginosa DSM1117; experiment: Dose-dependent killing analysis (CFU spot-plating) of stationary-phase P. aeruginosa; format: cell-based, Pseudomonas aeruginosa; conditions: for log10(CFU/ml) after treatment / killing, average Δlog10(CFU/ml) / log10(CFU/ml) of treated nongrowing bacteria (single replicates): P. aeruginosa; for log10(CFU/ml) after treatment: individual replicates; for log10(CFU/ml) of treated nongrowing bacteria (single replicates): before treatment 8.887; for reduction of bacterial counts, stationary phase P. aeruginosa: at 0.5 µM
Procedure: as §1, §2

[4] = at 2.5 µM, 1:4 CA-MHB pH 7.4, 24 h treatment
[5] = concentration 2.5, vs CFU before treatment
[6] = concentration 10, vs CFU before treatment

For `CCCCC(CC)CNC(=N)NC(=N)NCCCCCCNC(=N)NC(=N)NCC(CC)CCCC` (centres unmarked) [Alexidine], the “Regrowth, OD600 at 6h or 8h after dilution into drug-free medium (average)” value ([1]; drug concentration 0.1) was 0.539, the “Regrowth, OD600 at 6h or 8h after dilution into drug-free medium (average)” value ([1]; drug concentration 0.5) was 0.527 and the “Regrowth, OD600 at 6h or 8h after dilution into drug-free medium (average)” value ([1]; drug concentration 2.5) was 0.433. The “Regrowth, OD600 at 6h or 8h after dilution into drug-free medium (average)” value ([1]; drug concentration 10) was 0.087, the EC50 [1] was 3280 nM and the “reduction of non-growing S. aureus” value ([2]; at 10 µM, 24 h treatment) was “below the limit of detection”.
For `O=C(O)c1cn(C2CC2)c2cc(N3CCNCC3)c(F)cc2c1=O` [Ciprofloxacin], the “reduction of bacterial counts, non-growing P. aeruginosa” value (“reduction … non-growing P. aeruginosa” for short) [3, 4] was “more than four”.
With `CN1CCN(c2cc3c(cc2F)c(=O)c(C(=O)O)cn3-c2ccc(F)cc2)CC1` [Difloxacin] the “OD600 at 6h or 8h after dilution into drug-free medium (regrowth)” value ([1]; drug conc 0.1) was 0.660, the “OD600 at 6h or 8h after dilution into drug-free medium (regrowth)” value ([1]; drug conc 0.5) was 0.630 and the “OD600 at 6h or 8h after dilution into drug-free medium (regrowth)” value ([1]; drug conc 2.5) was 0.506. The “OD600 at 6h or 8h after dilution into drug-free medium (regrowth)” value ([1]; drug conc 10) was 0.371, the EC50 [1] was 2970 nM and the “average Δlog10(CFU/ml) (killing)” value ([2]; drug conc 0.1) was 0.032 log10(CFU/ml). The “average Δlog10(CFU/ml) (killing)” value ([2]; drug conc 0.5) was 0.171 log10(CFU/ml), the “average Δlog10(CFU/ml) (killing)” value ([2]; drug conc 2.5) was 0.107 log10(CFU/ml) and the “average Δlog10(CFU/ml) (killing)” value ([2]; drug conc 10) was 0.435 log10(CFU/ml).
With `COc1c(N2CCNC(C)C2)c(F)cc2c(=O)c(C(=O)O)cn(C3CC3)c12` (centres unmarked) [Gatifloxacin] the “average Δlog10(CFU/ml) (killing)” value ([2]; drug conc. 0.1) was -0.121 log10(CFU/ml), the “average Δlog10(CFU/ml) (killing)” value ([2]; drug conc. 0.5) was -0.040 log10(CFU/ml) and the “average Δlog10(CFU/ml) (killing)” value ([2]; drug conc. 2.5) was 0.371 log10(CFU/ml). For the same molecule, the “average Δlog10(CFU/ml) (killing)” value ([2]; drug conc. 10) was 0.946 log10(CFU/ml).
In the case of `CO/N=C1\CN(c2nc3c(cc2F)c(=O)c(C(=O)O)cn3C2CC2)CC1CN` (centres unmarked) [Gemifloxacin], the “log10(CFU/ml) after treatment” value ([3]; concentration 0.1) is reported as 8.477 log10(CFU/ml) and 8.778 log10(CFU/ml) and 8.114 log10(CFU/ml), the “killing, average Δlog10(CFU/ml)” value ([3]; concentration 0.1, vs CFU before treatment) is reported as 0.431 log10(CFU/ml) and the “log10(CFU/ml) after treatment” value ([3]; concentration 0.5) is reported as 7.699 log10(CFU/ml) (2×) and 7.477 log10(CFU/ml). The “killing, average Δlog10(CFU/ml)” value ([3]; concentration 0.5, vs CFU before treatment) was 1.262 log10(CFU/ml), the “log10(CFU/ml) after treatment” value ([3]; concentration 2.5) was “=<4 log10(CFU/ml) (2×) and 4.954 log10(CFU/ml)” and the “killing, average Δlog10(CFU/ml)” value [3, 5] was 4.569 log10(CFU/ml). The “log10(CFU/ml) after treatment” value ([3]; concentration 10) was “=<4 log10(CFU/ml) (2×) and 4.477 log10(CFU/ml)”, the “killing, average Δlog10(CFU/ml)” value [3, 6] was 4.728 log10(CFU/ml) and the “reduction … non-growing P. aeruginosa” value [3, 4] was “more than four”.
`Cc1oc(=O)oc1CN1CCN(c2cc3c(cc2F)c(=O)c(C(=O)O)c2n3C(C)S2)CC1` (centres unmarked) [Prulifloxacin] was tested, and the “log10(CFU/ml) after treatment” value ([3]; concentration 2.5) was “=<4 log10(CFU/ml) (2×) and 4.602 log10(CFU/ml)”, the “killing, average Δlog10(CFU/ml)” value [3, 5] was 4.687 log10(CFU/ml) and the “log10(CFU/ml) after treatment” value ([3]; concentration 10) was “=<4 log10(CFU/ml)”. For the same molecule, the “killing, average Δlog10(CFU/ml)” value [3, 6] was 4.887 log10(CFU/ml), the “killing, average Δlog10(CFU/ml)” value ([3]; drug concentration 0.1) was 0.555 log10(CFU/ml) and the “log10(CFU/ml) of treated nongrowing bacteria (single replicates)” value (“log10(CFU/ml) … (single replicates)” below) ([3]; drug concentration 0.1) was 8.477 log10(CFU/ml) (2×) and 8.041 log10(CFU/ml). For the same molecule, the “killing, average Δlog10(CFU/ml)” value ([3]; drug concentration 0.5) was 3.168 log10(CFU/ml), the “log10(CFU/ml) … (single replicates)” value ([3]; drug concentration 0.5) was 5.778 log10(CFU/ml) and 6.602 log10(CFU/ml) and 4.778 log10(CFU/ml) and the “reduction of bacterial counts, stationary phase P. aeruginosa” value (shortened to “reduction … stationary phase P. aeruginosa”) ([3]; 24 h treatment) was “more than four”. The “reduction … non-growing P. aeruginosa” value [3, 4] was “more than four”.
`CO[C@H]1/C=C/O[C@@]2(C)Oc3c(C)c(O)c4c(O)c(c(/C=N/N5CCN(C)CC5)c(O)c4c3C2=O)NC(=O)/C(C)=C\C=C\[C@H](C)[C@H](O)[C@@H](C)[C@@H](O)[C@@H](C)[C@H](OC(C)=O)[C@@H]1C` [Rifampicin] was tested, and the EC50 [1] was 43 nM.
`CC[C@H]1OC(=O)[C@@](C)(F)C(=O)[C@H](C)[C@@H](O[C@@H]2O[C@H](C)C[C@H](N(C)C)[C@H]2O)[C@](C)(OC)C[C@@H](C)C(=O)[C@H](C)[C@H]2N(CCCCn3cc(-c4cccc(N)c4)nn3)C(=O)O[C@]12C` [Solithromycin] was tested, and the “reduction … stationary phase P. aeruginosa” value ([3]; 24 h treatment) was “more than four”, the “reduction … non-growing P. aeruginosa” value [3, 4] was “more than four” and the “killing of non-growing P. aeruginosa” value ([3]; at 2.5 µM, 24 h treatment) was over 4 log10. The “reduction … non-growing P. aeruginosa” value ([3]; at 10 µM, 24 h treatment) was “more than four”.
For `C[C@@H]1CN(c2c(F)c(N)c3c(=O)c(C(=O)O)cn(C4CC4)c3c2F)C[C@H](C)N1` [Sparfloxacin], the “killing, average Δlog10(CFU/ml)” value ([3]; drug concentration 0.1) was 0.268 log10(CFU/ml), the “log10(CFU/ml) … (single replicates)” value ([3]; drug concentration 0.1) was 8.602 log10(CFU/ml) and 9.079 log10(CFU/ml) and 8.176 log10(CFU/ml) and the “killing, average Δlog10(CFU/ml)” value ([3]; drug concentration 0.5) was 0.923 log10(CFU/ml). For the same molecule, the “log10(CFU/ml) … (single replicates)” value ([3]; drug concentration 0.5) was 8.114 log10(CFU/ml) and 8.000 log10(CFU/ml) and 7.778 log10(CFU/ml), the “killing, average Δlog10(CFU/ml)” value ([3]; drug concentration 2.5) was 3.104 log10(CFU/ml) and the “log10(CFU/ml) … (single replicates)” value ([3]; drug concentration 2.5) was 5.903 log10(CFU/ml) and 6.845 log10(CFU/ml) and 4.602 log10(CFU/ml). The “killing, average Δlog10(CFU/ml)” value ([3]; drug concentration 10) was 4.887 log10(CFU/ml) and the “log10(CFU/ml) … (single replicates)” value ([3]; drug concentration 10) was “=<4 log10(CFU/ml)”.
With `N[C@@H]1[C@H]2CN(c3nc4c(cc3F)c(=O)c(C(=O)O)cn4-c3ccc(F)cc3F)C[C@@H]12` [Trovafloxacin] the “killing, average Δlog10(CFU/ml)” value ([3]; drug concentration 0.1) was 0.236 log10(CFU/ml), the “log10(CFU/ml) … (single replicates)” value ([3]; drug concentration 0.1) was 8.699 log10(CFU/ml) and 8.954 log10(CFU/ml) and 8.301 log10(CFU/ml) and the “killing, average Δlog10(CFU/ml)” value ([3]; drug concentration 0.5) was 0.717 log10(CFU/ml). The “log10(CFU/ml) … (single replicates)” value ([3]; drug concentration 0.5) was 7.954 log10(CFU/ml) (2×) and 8.602 log10(CFU/ml), the “killing, average Δlog10(CFU/ml)” value ([3]; drug concentration 2.5) was 1.077 log10(CFU/ml) and the “log10(CFU/ml) … (single replicates)” value ([3]; drug concentration 2.5) was 7.778 log10(CFU/ml) and 7.954 log10(CFU/ml) and 7.699 log10(CFU/ml). For the same molecule, the “killing, average Δlog10(CFU/ml)” value ([3]; drug concentration 10) was 1.687 log10(CFU/ml) and the “log10(CFU/ml) … (single replicates)” value ([3]; drug concentration 10) was 7.301 log10(CFU/ml) (2×) and 7.000 log10(CFU/ml).
`CC1Sc2c(C(=O)O)c(=O)c3cc(F)c(N4CCNCC4)cc3n21` (centres unmarked) [Ulifloxacin] was tested, and the “reduction … stationary phase P. aeruginosa” value ([3]; 24 h treatment) was “more than four” and the “reduction … non-growing P. aeruginosa” value [3, 4] was “more than four”.
